Results published in patent publication US20090054376A1, “BENZOFURAN DERIVATIVES WITH THERAPEUTIC ACTIVITIES” (Pharmos Corporation, priority 2005, published 2009).
Counter-ions that a name gives are not always drawn. Like-named read-outs stand apart in the source and are kept apart here.

Key:
[1] = system: visceral pain writhing responses; assay: Visceral pain, acetic acid induced writhing responses; assay type: in vivo, Male ICR mice; conditions: for inhibition in vivo at 2 mg/kg: Mus musculus, iv, read-out: Percent Inhibition of Visceral Pain Writhing Responses; for inhibition in vivo at 2 mg/kg / Percent Inhibition of Visceral Pain Writhing Responses: single dose 2 mg/kg i.v., compared to untreated group
Method: Male ICR mice (average body weight 25 g, Harlan, Israel) were pretreated by i.v. injection at volume dose of 5 ml/kg of vehicle, control and test compounds at various doses. Other routes of administration were tested for selected compounds including i.m. or s.c. injections at volume dose of 2.5 ml/kg and p.o. gavage at volume dose of 5 ml/kg. Compounds were dissolved in CREMOPHOR®:Ethanol and diluted 1:20 in saline prior to injection or gavage. Compounds administered i.v. were injected fifteen minutes before pain induction, whereas compounds administered i.m., s.c. or p.o. were supplied thirty minutes before pain induction, unless otherwise indicated. Each treatment group, except for controls comprising at least 30 animals, was composed of at least 6 animals. Fifteen or thirty minutes after drug administration, depending on the route of administration, the mice were injected i.p. with 10 ml/kg of 0.6% acetic acid and the number of visceral pain related behaviors (writhing movements globally defined as WR, i.e. stretching, contractions of the abdomen accompanied by an elongation of the body and extension of the hind limbs) was counted over a period of 5 minutes, starting 5 minutes after the acetic acid administration. These visceral pain related behaviors were globally defined as writhing responses (WR). The results are expressed as mean number of writhing responses ±SEM. Data were analyzed using analysis of variance (ANOVA) followed by post-hoc Fisher test.

[2] = system: carrageenan induced inflammatory pain and paw edema; assay: Inflammatory pain and paw edema induced by carrageenan; assay type: in vivo, Male Sprague Dawley rats; conditions: for inhibition in vivo at 20 mg/kg / inhibition in vivo at 10 mg/kg: Rattus norvegicus, ip; for inhibition in vivo at 20 mg/kg: 20 mg/kg i.p. (two asterisks); for inhibition in vivo at 10 mg/kg / Percent Inhibition of Inflammatory Pain Responses, Edema / Percent Inhibition of Inflammatory Pain Responses, ΔForce / Percent Inhibition of Inflammatory Pain Responses, ΔLT: 10 mg/kg i.p.
Method: Male Sprague Dawley rats (average body weight 200 g, Harlan, Israel) were transiently sedated by placement on dry ice for the duration of the injections. Rats were injected subcutaneously, in the subplantar region of one (right) paw with 0.1 ml of 2% w/v λ Carrageenan in sterile saline. […] Test compounds were, unless otherwise stated, administered i.p. at initial single dose of 3, 10 or 20 mg/kg, and volume dose of 5 ml/kg, immediately after the carrageenan injection. Selected compounds were also tested p.o. following oral gavage. Vehicle and celecoxib treated animals were used as controls. Each treatment group comprised at least seven animals.
Before induction of inflammatory pain and three hours after injection, the animals reactions to pain stimuli were tested in two systems. The first stimulus was thermal and assessed by the Plantar Test according to Hargreaves, using Ugo Basile Model 7370. The scale was set to an intensity of 50 arbitrary units. The latency time till the animal lift a paw as a reaction to the thermal stimulus was recorded for both the inflamed and non-inflamed hind paws. The second stimulus was mechanical (tactile) and assessed using a Dynamic Plantar Sesthesiomether (Ugo Basile Model 73400-002). […] Finally, the impact on paw edema was assessed. Paw thickness was measured using a dial thickness gauge (Spring-dial, constant low pressure gauge, Mitutoyo, TG/L-1, 0.01 mm) and paw volume was measured using a plethysmometer (model #7150, Ugo Basile, Italy). At the end of the study, animals were euthanized.
The results are measured as the differences between the two hind paws at time 0 and 3 hours both as ALT, for the latency time in the thermal part of the study, and as ΔForce, for the mechanical part of the study. The paw volume is expressed as percent from vehicle treated animals. Results are expressed as mean±SEM for each treatment group and the differences among those groups are analyzed by analysis of variance (ANOVA) followed by post-hoc Tukey's test.
Results refer to i.p. treatment with 10 mg/kg. Results marked with one asterisk refer to a dose 3 mg/kg, whereas two asterisks refer to 20 mg/kg. Celecoxib is included as reference.

[3] = 3 hours, mechanical stimulus, read-out: Percent Inhibition of Inflammatory Pain Responses, ΔForce
[4] = 3 hours, reduction in paw swelling, read-out: Percent Inhibition of Inflammatory Pain Responses, Edema
[5] = 3 hours, thermal stimulus, read-out: Percent Inhibition of Inflammatory Pain Responses, ΔLT
[6] = 3 hours after carrageenan, reduction in paw swelling, read-out: Percent Inhibition of Inflammatory Pain Responses, Edema
[7] = 3 hours after carrageenan, reduction in paw swelling

SMILES: CCCCC(C)(C)c1cc(OCC(O)CO)c2c(c1)OC1CCCCC21 (stereo not shown) [Compound C6S-10, 3-[3-(1,1-Dimethylpentyl)-5a,6,7,8,9,9a-hexahydro-dibenzofuran-1-yloxy]-propane-1,2-diol]
- inhibition in vivo at 2 mg/kg [1]: 28%
- inhibition in vivo at 20 mg/kg [2, 3]: 24%
- inhibition in vivo at 20 mg/kg [2, 4]: 37%
- inhibition in vivo at 20 mg/kg [2, 5]: 50%

SMILES: CCCCC(C)(C)c1cc(O)c2c(c1)OC1CCCCC21C (stereo not shown) [Compound C6S-12, 3-(1,1-dimethylpentyl)-9a-methyl-5a,6,7,8,9,9a-hexahydro-dibenzofuran-1-ol]
- inhibition in vivo at 10 mg/kg [2, 6]: 53%
- inhibition in vivo at 10 mg/kg [2, 3]: 37%
- inhibition in vivo at 10 mg/kg [2, 5]: 33%

SMILES: CCCCC(C)(C)c1cc(O)c2c(c1)OC1CCCCCC21 (stereo not drawn) [Compound C7S-3, 2-(1,1-dimethylpentyl)-5,6,7,8,9,9a-hexahydro-4bH-10-oxa-benzo[α]azulen-4-ol]
- Percent Inhibition of Inflammatory Pain Responses, Edema [2, 7]: 43%
- Percent Inhibition of Inflammatory Pain Responses, ΔForce ([2]; 3 hours, mechanical stimulus): 35%
- Percent Inhibition of Inflammatory Pain Responses, ΔLT ([2]; 3 hours, thermal stimulus): 46%

SMILES: CCCCCCC(C)(C)c1cc2c(c(OP(=O)(O)O)c1)C1CCCCC(O)C1O2 (stereo not drawn) [Compound C7S-13, Phosphoric acid mono-[2-(1,1-dimethylheptyl)-9-hydroxy-5,6,7,8,9,9a-hexahydro-4bH-10-oxa-benzo[α]azulen-4-yl]ester]
- Percent Inhibition of Visceral Pain Writhing Responses [1]: 72%
- Percent Inhibition of Inflammatory Pain Responses, Edema [2, 7]: 34%
- Percent Inhibition of Inflammatory Pain Responses, ΔForce ([2]; 3 hours, mechanical stimulus): 6%
- Percent Inhibition of Inflammatory Pain Responses, ΔLT ([2]; 3 hours, thermal stimulus): 0%

SMILES: CCCCCCC(C)(C)c1cc(O)c2c(c1)OC1C(N)CCCCC21 (stereo not drawn) [C7S-32 HCl salt, 9-Amino-2-(1,1-dimethylheptyl)-5,6,7,8,9,9a-hexahydro-4bH-10-oxa-benzo[α]azulen-4-ol]
- inhibition of pain (writhing) response ([1]; 4 mg/kg i.v.): 50%
- inhibition of pain (writhing) response ([1]; 10 mg/kg i.v.): 84%

SMILES: COC(=O)c1cc(O)c2c(c1)OC1CCCCC21 (stereo not shown) [Compound C6S-21, 1-hydroxy-5a,6,7,8,9,9a-hexahydro-dibenzofuran-3-carboxylic acid methyl ester]
- inhibition in vivo at 20 mg/kg [2, 4]: 38%
- inhibition in vivo at 20 mg/kg [2, 5]: 44%

SMILES: CCCCCCC(C)(C)c1cc(O)c2c3c(oc2c1)CCCC3 [Compound C6M-1, 3-(1,1-Dimethylheptyl)-6,7,8,9-tetrahydro-dibenzo-furan-1-ol]
- inhibition in vivo at 10 mg/kg [2, 6]: 31%
- inhibition in vivo at 10 mg/kg [2, 3]: 12%
- inhibition in vivo at 10 mg/kg [2, 5]: 12%

SMILES: CCCCCCC(C)(C)c1cc(OC(=O)C=CC(=O)O)c2c(c1)OC1(C)C(C)CCC21 (stereo not drawn) [Compound C5S-5, But-2-enedioic acid mono-[6-(1,1-dimethylheptyl)-1,8a-dimethyl-2,3,3a,8a-tetrahydro-1H-8-oxa-cyclopenta[α]inden-4-yl]ester]
- Percent Inhibition of Visceral Pain Writhing Responses [1]: 27%

SMILES: CCCCCCC(C)(C)c1cc(O)c2c(c1)OC1C(N)CCCCC21 (stereo not drawn) [Compound C7S-32, 9-Amino-2-(1,1-dimethylheptyl)-5,6,7,8,9,9a-hexahydro-4bH-10-oxa-benzo[α]azulen-4-ol]
- inhibition of pain (writhing) response ([1]; 4 mg/kg i.v.): 38%
- inhibition of pain (writhing) response ([1]; 10 mg/kg i.v.): 100%

SMILES: CCCCCCC(C)(C)c1cc(OCC(=O)O)c2c(c1)OC1CCCCC21 (stereo not shown) [Compound C6S-18, [3-(1,1-dimethylheptyl)-5a,6,7,8,9,9a-hexahydro-dibenzofuran-1-yloxy]-acetic acid]
- inhibition in vivo at 20 mg/kg [2, 3]: 31%
- inhibition in vivo at 20 mg/kg [2, 4]: 48%
- inhibition in vivo at 20 mg/kg [2, 5]: 49%

SMILES: Cc1ccc(-c2cc(C(F)(F)F)nn2-c2ccc(S(N)(=O)=O)cc2)cc1 [Celecoxib, reference compound]
- activity in visceral pain model ([1]; doses up to 10 mg/kg): inactive
- Percent Inhibition of Inflammatory Pain Responses, ΔForce ([2]; 3 hours, mechanical stimulus): 2%
- inhibition in vivo at 10 mg/kg [2, 6]: 45%
- inhibition in vivo at 10 mg/kg [2, 3]: 2%
- inhibition in vivo at 10 mg/kg [2, 5]: 58%

SMILES: CCCCCCC(C)(C)c1cc(O)c2c(c1)OC1(C)C(C)CCC21 (stereo not drawn) [Compound C5S-4, 6-(1,1-dimethylheptyl)-1,8a-dimethyl-2,3,3a,8a-tetrahydro-1H-8-oxa-cyclo-penta[α]inden-4-ol]
- Percent Inhibition of Inflammatory Pain Responses, Edema [2, 7]: 49%
- Percent Inhibition of Inflammatory Pain Responses, ΔForce ([2]; 3 hours, mechanical stimulus): 88%
- Percent Inhibition of Inflammatory Pain Responses, ΔLT ([2]; 3 hours, thermal stimulus): 100%

SMILES: CCCCC(C)(C)c1cc2c(c(OP(=O)(O)O)c1)C1CCCCC1O2 (stereo not shown) [Compound C6S-16, Phosphoric acid mono-[3-(1,1-dimethylpentyl)-5a,6,7,8,9,9a-hexahydro-dibenzofuran-1-yl]ester]
- inhibition in vivo at 20 mg/kg [2, 3]: 6%
- inhibition in vivo at 20 mg/kg [2, 4]: 31%
- inhibition in vivo at 20 mg/kg [2, 5]: 69%

SMILES: CCCCCCC(C)(C)c1cc(OC(=O)CCNC)c2c(c1)OC1CC(C)(C)CCC21 (stereo not shown) [Compound C6S-39, 3-Methylamino-propionic acid 3-(1,1-dimethylheptyl)-7,7-dimethyl-5a,6,7,8,9,9a-hexahydro-dibenzofuran-1-yl ester]
- inhibition of writhing responses ([1]; 0.02 mg/kg i.v., compared to vehicle): 38%
- inhibition of pain response ([1]; 0.08 mg/kg i.v.): totally inhibited pain response
- fold more potent than morphine ([1]; IC50 in visceral pain, i.v.): 35 fold
- inhibition in vivo at 2 mg/kg [1]: > 90%
- IC50 in visceral pain ([1]; i.v., estimated or calculated from dose range): 0.03 mg/kg
